These results are taken from PMC12153356, “An antisense oligomer conjugate with unpredicted bactericidal activity against Fusobacterium nucleatum” (mBio, 2025).

Series [1] concerns F. nucleatum subsp. nucleatum ATCC 23726 (FNN23). In words: Determination of bactericidal effect by CFU spot assay. The format is cell-based, Fusobacterium nucleatum subsp. nucleatum ATCC 23726. The note with it: 10 µM, 1 × 10^5 CFU/mL in MHB, spotting on BHI agar plates, up to 96 h, three replicates. How it is done:
To investigate the bactericidal effects of PNAs an o.n. culture of FNN23 grown in ColB was diluted 1:50 in fresh ColB and grown to OD600 0.5. This culture was then diluted 1:2,500 to 1 × 10^5 CFU/mL in MHB, and 190 µL of the culture was dispensed into a transparent 96-well plate (Nunc, Thermo Fischer Scientific) together with 10 µL of respective 20× PNA stock or water and incubated at 37°C with 237 cpm shaking every 20 min. At the respective time points, 100 µL was taken out of the well, a 1:10 serial dilution series was prepared with 900 µL anoxic 1× PBS, and 5 µL of each dilution was spotted on BHI plates for CFU determination. Plates were incubated for 3 days at 37°C before taking out the plates of the anaerobic chamber for CFU counting.

The next series relates to HeLa cells. The note with it: cited from earlier work.
The subject of series [2] is F. nucleatum subsp. nucleatum ATCC 23726 (FNN23). The series is described as follows: MIC determination and growth inhibition assay (broth microdilution, OD600 over time). The note with it: MHB; for Growth inhibition of FNN23: 10 µM compound, 1 × 10^5 CFU/mL, growth inhibition = no visible growth (OD600 <0.01) after 120 h. The format is cell-based, Fusobacterium nucleatum subsp. nucleatum ATCC 23726. How it is done: To test CPP-PNA conjugates for growth inhibition, we diluted mid-exponential phase cultures of FNN23 to 1 × 10^5 colony forming units (CFUs) per milliliter in Mueller-Hinton Broth (MHB) and incubated the diluted bacteria with 10 µM of either (KFF)3K- or (RXR)4XB- conjugated PNAs targeting acpP, ftsZ or gyrA. Growth was monitored over time by OD600 measurements, with growth inhibition defined as no visible growth (OD600 <0.01) after 120 h. […] Based on these findings, we conclude that CPP-PNAs targeting fusobacterial mRNAs are not effective in antisense inhibition.
(§1) The following fusobacterial strains were used in this study: Fusobacterium nucleatum subsp. nucleatum ATCC 23726 (FNN23) acquired from the American Type Culture Collection (ATCC), F. nucleatum subsp. nucleatum ATCC 25586 (FNN25), F. nucleatum subsp. vincentii ATCC 49256 (FNV), and F. nucleatum subsp. polymorphum ATCC 10953 (FNP) acquired from the German Collection of Microorganisms and Cell Culture (DSMZ), F. nucleatum subsp. animalis 7_1 (FNA) and F. periodonticum 2_1_31 (FPE) both received as a kind gift from E. Allen-Vercoe (University of Guelph, Canada). All strains were routinely grown at 37°C in 80:10:10 (N2:H2:CO2) anaerobic conditions on 2% agar supplemented BHI plates (BHI, 1% [wt:vol] dried yeast extract, 1% [vol:vol] 50% sterile-filtered glucose solution, 5 µg/mL of hemin; 1% [vol:vol] fetal bovine serum) from frozen 20% glycerol stocks kept at −80°C. For liquid growth, the strains were cultured in Columbia broth (ColB; BD Difco). Precultures were prepared 24 h before inoculating the working culture at a 1:50 dilution in fresh ColB until OD600 0.5 was reached. Cultures were then diluted in non-cation adjusted Mueller-Hinton Broth (MHB, BD Difco) to the desired CFU/mL number. P. gingivalis (DSM 20709) was purchased from DSMZ and grown at 37°C in anaerobic conditions as mentioned above on 2% agar supplemented BHI+ plates (BHI, 1% [wt:vol] dried yeast extract, 1% [vol:vol] 50% sterile filtered glucose solution, 5 µg/ml of hemin; 10% [vol:vol] fetal bovine serum; and 1 µg/mL vitamin K3) for 4 days. For liquid growth, P. gingivalis was cultured in BHI+ medium (BHI, BD Difco supplemented with 1% [vol:vol] 50% sterile-filtered glucose solution, 5 µg/mL of hemin; 1% [vol:vol] fetal bovine serum, and 1 µg/mL vitamin K3). Precultures were prepared 24 h before inoculating the working culture at a 1:20 dilution in BHI+ until OD600 of 0.5 was reached. All plates, media, buffers, and reagents were brought into the anaerobic chamber the day before usage to ensure full oxygen depletion.
To determine the MIC value, broth microdilutions were performed according to the standard protocol with some modifications ([119]). An overnight bacterial culture was diluted in a fresh ColB medium and grown to OD600 0.5 (mid-exponential phase). […] To determine the growth inhibition of P. gingivalis, an o.n. culture grown in BHI+ was diluted 1:1,500 in MHB to obtain 1 × 10^5 CFU/mL. E. coli K12, E. coli Nissle 1917, and S. enterica o.n. cultures grown in MHB were diluted 1:1,800 in fresh MHB to obtain 1 × 10^5 CFU/mL. In total, 190 µL of diluted bacterial cultures were pipetted into a transparent 96-well plate (Nunc, Thermo Fischer Scientific) together with 10 µL of respective 20× CPP or CPP-PNA stock or water as control. Bacterial growth was monitored by measuring OD600 every 20 min with constant shaking in a plate reader (Biotek) under the normal atmospheric environment or positioned in the anaerobic chamber with double orbital shaking every 20 min prior to each measurement with 237 cpm at 37°C for 120 h.
A general note: Broth dilution looks for growth in wells or tubes with falling amounts of substance.

In series [3] the test system is F. nucleatum subsp. nucleatum ATCC 25586 (FNN25). The series is described as follows: Growth inhibition assay. The note with it: 10 µM, MHB, 1 × 10^5 CFU/mL input, three replicates; listed as sequence variant 1. The series is classed as cell-based, Fusobacterium nucleatum subsp. nucleatum ATCC 25586.
Description: as §1, with “For liquid growth, P. gingivalis was cultured in BHI+ medium (BHI, BD Difco supplemented with 1% [vol:vol] 50% sterile-filtered glucose solution, 5 µg/mL of hemin; 1% [vol:vol] fetal bovine serum, and 1 µg/mL vitamin K3). Precultures were prepared 24 h before inoculating the working culture at a 1:20 dilution in BHI+ until OD600 of 0.5 was reached. All plates, media, buffers, and reagents were brought into the anaerobic chamber the day before usage to ensure full oxygen depletion.” left out
(§2) To determine the MIC value, broth microdilutions were performed according to the standard protocol with some modifications ([119]). […] Bacterial growth was monitored by measuring OD600 every 20 min with constant shaking in a plate reader (Biotek) under the normal atmospheric environment or positioned in the anaerobic chamber with double orbital shaking every 20 min prior to each measurement with 237 cpm at 37°C for 120 h.

For series [4], the system named is F. nucleatum subsp. animalis 7_1 (FNA). The series is described as follows: Growth inhibition assay. The format is cell-based, Fusobacterium nucleatum subsp. animalis 7_1. The note with it: 10 µM, MHB, 1 × 10^5 CFU/mL input, three replicates; listed as sequence variant 1.
Description: as §1, with “For liquid growth, P. gingivalis was cultured in BHI+ medium (BHI, BD Difco supplemented with 1% [vol:vol] 50% sterile-filtered glucose solution, 5 µg/mL of hemin; 1% [vol:vol] fetal bovine serum, and 1 µg/mL vitamin K3). Precultures were prepared 24 h before inoculating the working culture at a 1:20 dilution in BHI+ until OD600 of 0.5 was reached. All plates, media, buffers, and reagents were brought into the anaerobic chamber the day before usage to ensure full oxygen depletion.” left out
as §2

The test system of series [5] is F. periodonticum 2_1_31 (FPE). The series is described as follows: Growth inhibition assay. The series is classed as cell-based, Fusobacterium periodonticum 2_1_31. The note with it: 10 µM, MHB, 1 × 10^5 CFU/mL input, three replicates; listed as sequence variant 1.
Description: as §1, with “For liquid growth, P. gingivalis was cultured in BHI+ medium (BHI, BD Difco supplemented with 1% [vol:vol] 50% sterile-filtered glucose solution, 5 µg/mL of hemin; 1% [vol:vol] fetal bovine serum, and 1 µg/mL vitamin K3). Precultures were prepared 24 h before inoculating the working culture at a 1:20 dilution in BHI+ until OD600 of 0.5 was reached. All plates, media, buffers, and reagents were brought into the anaerobic chamber the day before usage to ensure full oxygen depletion.” left out
as §2

Series [6] deals with F. nucleatum subsp. polymorphum ATCC 10953 (FNP). In words: Growth inhibition assay. The series is classed as cell-based, Fusobacterium nucleatum subsp. polymorphum ATCC 10953. The conditions noted are these: 10 µM, MHB, 1 × 10^5 CFU/mL input, three replicates; listed as sequence variant 1.
Description: as §1, with “For liquid growth, P. gingivalis was cultured in BHI+ medium (BHI, BD Difco supplemented with 1% [vol:vol] 50% sterile-filtered glucose solution, 5 µg/mL of hemin; 1% [vol:vol] fetal bovine serum, and 1 µg/mL vitamin K3). Precultures were prepared 24 h before inoculating the working culture at a 1:20 dilution in BHI+ until OD600 of 0.5 was reached. All plates, media, buffers, and reagents were brought into the anaerobic chamber the day before usage to ensure full oxygen depletion.” left out
as §2

Square brackets hold non-standard residues; d marks the D form. Peptide text beside a SMILES is read from it. Ahx = NCCCCCC(=O)O; βAla = NCCC(=O)O

With `N=C(N)NCCC[C@H](NC(=O)CCCCCNC(=O)[C@H](CCCNC(=N)N)NC(=O)[C@H](CCCNC(=N)N)NC(=O)CCCCCNC(=O)[C@H](CCCNC(=N)N)NC(=O)[C@H](CCCNC(=N)N)NC(=O)CCCCCNC(=O)[C@H](CCCNC(=N)N)NC(=O)[C@H](CCCNC(=N)N)NC(=O)CCCCCNC(=O)[C@@H](N)CCCNC(=N)N)C(=O)NCCCCCC(=O)NCCC(=O)O` [(RXR)4XB, reference compound] (H-R[Ahx]RR[Ahx]RR[Ahx]RR[Ahx]R[Ahx][βAla]-OH; N-terminus and C-terminus assumed), the “Bactericidal effect (viable cells, CFU) on FNN23” value (“Bactericidal effect” below) in series [1] is reported as “no bactericidal effect”. Turning to `CC[C@H](C)[C@H](NC(=O)[C@H](CCCNC(=N)N)NC(=O)[C@H](CCCNC(=N)N)NC(=O)[C@H](CC(C)C)NC(=O)[C@H](Cc1c[nH]c2ccccc12)NC(=O)[C@H](C)NC(=O)[C@H](CCCCN)NC(=O)[C@@H](NC(=O)[C@H](CCCNC(=N)N)NC(=O)[C@H](CCCNC(=N)N)NC(=O)[C@H](CC(C)C)NC(=O)[C@@H](N)Cc1c[nH]c2ccccc12)[C@@H](C)CC)C(=O)N[C@@H](CCCCN)C(=O)N[C@@H](C)C(=O)N[C@@H](CC(C)C)C(=O)N[C@@H](CC(N)=O)C(=O)N[C@@H](CCCNC(=N)N)C(=O)N[C@@H](CCC(N)=O)C(=O)N[C@@H](CC(C)C)C(=O)NCC(=O)N[C@H](C(=O)N[C@@H](C)C(=O)N[C@@H](C)C(=O)O)C(C)C` [Seq471], the “Cytotoxicity in HeLa cells” value in the series on HeLa cells is on record as “without notable cytotoxicity”.

In the case of “GACATAATTGT [PNA79, FUS79 without the (RXR)4XB module, PNA …]”, the “Growth inhibition of FNN23” value in series [2] is on record as “only the original FUS79 as well as sequence variant 1 conjugated to full-length (RXR)4XB inhibited the growth”. The same measure, in the same setting: to “KFFKFFKFFK (GACATAATTGT; all phosphorodiamidate morpholino (PMO); (KFF)3K peptide conjugated via azide-cyclooctyne click, attachment end not given here) [(KFF)3K-PMO79, (KFF)3K conjugated to 11mer PMO …]” belongs “did not inhibit the growth”. Regarding “KFFKFFKFFK [(KFF)3K-gyrA_11mer_2, (KFF)3K conjugated to 11mer PNA … targeting gyrA]”, in series [2] (10 µM (KFF)3K-PNA, 1 × 10^5 CFU/mL (Fig. 2C)), the “Growth delay of FNN23” value is on record as ~ 40 h. Further, the “Growth retardation of FNN23 at higher concentrations” value in series [2] (concentrations higher than 10 µM, 1 x 10^5 CFU per ml (Fig. S1C)) is recorded as “did not lead to further growth retardation”. Polymyxin B [reference compound]: in series [1], the “Bactericidal effect” value is “fully diminished CFUs after 96 h”.

“RXRRXRRXRRXRXB [(RXR)4XB-ftsZ, (RXR)4XB conjugated to 10mer PNA … targeting ftsZ]”: the “Bactericidal effect” value in series [1] (listed as (RXR)4XB-PNA targeting ftsZ) is “could not observe a CFU reduction”. For the compound “RXRRXRRXRRXRXB [(RXR)4XB-non-targeting-PMO, (RXR)4XB conjugated to non-targeting 11mer PMO …]”, the “Growth inhibition of FNN23” value in series [2] (listed as (RXR)4XB-conjugated non-targeting PMO control) was “did not inhibit the growth”. Take “RXRRXRRXRRXRXB [(RXR)4XB-trpB, (RXR)4XB conjugated to 11mer PNA … complementary to trpB TIR]”: the “Growth inhibition of FNN23” value in series [2] is “did not result in growth impairment”. Consider RXRRXRRXRRXRXB [FUS79 variant 1], for which the “Growth inhibition of FNN25” value in series [3] was “effective in strains susceptible to FUS79”. The “Growth inhibition of FNA” value in series [4] is recorded as “effective in strains susceptible to FUS79”. Besides, the “Growth inhibition of FPE” value in series [5] is “effective in strains susceptible to FUS79”. In series [2] (listed as sequence variant 1), the “Growth inhibition of FNN23” value is reported as “inhibited the growth”. In series [6], the “Growth inhibition of FNP” value is given as “effective in strains susceptible to FUS79”.

“RXRRXRRXRXB [(RXR)3XB-PNA79, PNA … with shortened CPP module RXRRXRRXRXB]”: the “Growth inhibition of FNN23” value in series [2] is on record as “only the original FUS79 as well as sequence variant 1 conjugated to full-length (RXR)4XB inhibited the growth”.
